Experiments:
[1] = target: CK1γ3 (Homo sapiens, UniProt Q9Y6M4); assay: Selectivity profile (123 kinase panel); assay type: biochemical
[2] = target: MST1 (Homo sapiens, UniProt Q13043); assay: Selectivity profile (123 kinase panel); assay type: biochemical
[3] = target: MST2 (Homo sapiens, UniProt Q13188); assay: Selectivity profile (123 kinase panel); assay type: biochemical
[4] = target: EPHB4 (Homo sapiens, UniProt P54760); assay: Selectivity profile (123 kinase panel); assay type: biochemical
[5] = In vivo pharmacokinetic studies; parameters: species or system SD rats; conditions: Sprague-Dawley (SD), rat, plasma, po, 10 mg/kg
Description: Blood samples (0.25 mL) were collected at 0.25, 0.5, 1, 2, 4, 8, 16, and 24 h after administration and centrifuged to obtain the plasma fraction. In a 96-well plate, the plasma sample (50 μL) was transferred, and the internal standard methanol/acetonitrile (1:1, v/v) solution (200 μL) was added. After vortexing for 5 min, the mixture was centrifuged (12,000 rpm, 5 min) and the supernatant was obtained (60.0 μL). Liquid chromatography and tandem mass spectrometry (LC-MS/MS) system was used to study pharmacokinetics. The data were processed by Phoenix.

[6] = target: ALK6 (Homo sapiens, UniProt O00238); assay: Selectivity profile (123 kinase panel); assay type: biochemical
[7] = target: T1, NRP1 (Homo sapiens, UniProt O14786); assay: Microscale thermophoresis (MST) assay; assay type: binding; conditions: labeled protein 50 nM, read-out: NRP1 (K d)
T1 construct: purchased Abcam
T1 sequence (O14786 22-644 isoform O14786-2 limits assumed): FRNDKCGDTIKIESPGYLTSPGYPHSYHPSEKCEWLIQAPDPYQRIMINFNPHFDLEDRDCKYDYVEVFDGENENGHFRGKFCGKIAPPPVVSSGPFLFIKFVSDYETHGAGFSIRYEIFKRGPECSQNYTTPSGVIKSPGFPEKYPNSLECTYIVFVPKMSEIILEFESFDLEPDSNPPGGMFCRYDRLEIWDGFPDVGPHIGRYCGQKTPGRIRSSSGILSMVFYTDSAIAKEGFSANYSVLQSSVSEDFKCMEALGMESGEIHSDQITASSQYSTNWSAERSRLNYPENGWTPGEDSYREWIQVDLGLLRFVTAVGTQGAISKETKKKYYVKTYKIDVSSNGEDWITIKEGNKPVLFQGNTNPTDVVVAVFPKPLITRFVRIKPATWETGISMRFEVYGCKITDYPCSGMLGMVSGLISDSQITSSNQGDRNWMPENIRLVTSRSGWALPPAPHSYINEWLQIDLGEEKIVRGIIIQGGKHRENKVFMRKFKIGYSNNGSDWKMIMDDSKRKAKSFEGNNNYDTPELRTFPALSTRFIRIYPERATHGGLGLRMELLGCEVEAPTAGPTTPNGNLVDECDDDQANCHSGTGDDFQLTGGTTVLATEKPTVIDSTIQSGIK
Description: (§1) All samples were diluted in 1 × PBST. […] Affinity Analysis software.

[8] = target: T2, PARP1 (Homo sapiens, UniProt P09874); assay: Microscale thermophoresis (MST) assay; assay type: binding; conditions: labeled protein 50 nM, read-out: PARP1 (K d)
T2 construct: purchased Abcam
Description: as §1

[9] = target: NuaK1 (Homo sapiens, UniProt O60285); assay: Selectivity profile (123 kinase panel); assay type: biochemical
[10] = target: CSF1R (Homo sapiens, UniProt P07333); assay: Selectivity profile (123 kinase panel); assay type: biochemical
[11] = target: JNK1 (Homo sapiens, UniProt P45983); assay: Selectivity profile (123 kinase panel); assay type: biochemical
[12] = target: FGFR3 (Homo sapiens, UniProt P22607); assay: Selectivity profile (123 kinase panel); assay type: biochemical
[13] = target: CLK3 (Homo sapiens, UniProt P49761); assay: Selectivity profile (123 kinase panel); assay type: biochemical
[14] = target: DAPK1 (Homo sapiens, UniProt P53355); assay: Selectivity profile (123 kinase panel); assay type: biochemical
[15] = target: PARP7 (Homo sapiens, UniProt Q7Z3E1); assay: Selectivity profile (other isoforms of PARP and NRP family); assay type: biochemical
[16] = target: CK1α (Homo sapiens, UniProt P48729); assay: Selectivity profile (123 kinase panel); assay type: biochemical
[17] = target: MER (Homo sapiens, UniProt Q12866); assay: Selectivity profile (123 kinase panel); assay type: biochemical
[18] = target: CRAF (Homo sapiens, UniProt P04049, Y340D/Y341D); assay: Selectivity profile (123 kinase panel); assay type: biochemical
[19] = target: PARP9 (Homo sapiens, UniProt Q8IXQ6); assay: Specificity testing by MST assay; assay type: binding
Description: as §1

[20] = target: NRP2 (Homo sapiens, UniProt O60462); assay: Specificity testing by MST assay; assay type: binding
Description: as §1

[21] = target: PARP10 (Homo sapiens, UniProt Q53GL7); assay: Specificity testing by MST assay; assay type: binding
Description: as §1

[22] = target: ATR (Homo sapiens, UniProt Q13535); assay: Specificity testing by MST assay; assay type: binding
Description: as §1

[23] = target: PARP13 (Homo sapiens, UniProt Q7Z2W4); assay: Specificity testing by MST assay; assay type: binding
Description: as §1

[24] = target: PARP8 (Homo sapiens, UniProt Q8N3A8); assay: Specificity testing by MST assay; assay type: binding
Description: as §1

[25] = target: PARP3 (Homo sapiens, UniProt Q9Y6F1); assay: Specificity testing by MST assay; assay type: binding
Description: as §1

[26] = target: PARP12 (Homo sapiens, UniProt Q9H0J9); assay: Specificity testing by MST assay; assay type: binding
Description: as §1

[27] = target: PARP15 (Homo sapiens, UniProt Q460N3); assay: Specificity testing by MST assay; assay type: binding
Description: as §1

[28] = target: PARP14 (Homo sapiens, UniProt Q460N5); assay: Specificity testing by MST assay; assay type: binding
Description: as §1

[29] = target: CHEK2 (Homo sapiens, UniProt O96017); assay: Specificity testing by MST assay; assay type: binding
Description: as §1

[30] = target: RAD51 (Homo sapiens, UniProt Q06609); assay: Specificity testing by MST assay; assay type: binding
Description: as §1

[31] = target: FRK (Homo sapiens, UniProt P42685); assay: Selectivity profile (123 kinase panel); assay type: biochemical

Sequence of MST2 (Q13188 whole entry): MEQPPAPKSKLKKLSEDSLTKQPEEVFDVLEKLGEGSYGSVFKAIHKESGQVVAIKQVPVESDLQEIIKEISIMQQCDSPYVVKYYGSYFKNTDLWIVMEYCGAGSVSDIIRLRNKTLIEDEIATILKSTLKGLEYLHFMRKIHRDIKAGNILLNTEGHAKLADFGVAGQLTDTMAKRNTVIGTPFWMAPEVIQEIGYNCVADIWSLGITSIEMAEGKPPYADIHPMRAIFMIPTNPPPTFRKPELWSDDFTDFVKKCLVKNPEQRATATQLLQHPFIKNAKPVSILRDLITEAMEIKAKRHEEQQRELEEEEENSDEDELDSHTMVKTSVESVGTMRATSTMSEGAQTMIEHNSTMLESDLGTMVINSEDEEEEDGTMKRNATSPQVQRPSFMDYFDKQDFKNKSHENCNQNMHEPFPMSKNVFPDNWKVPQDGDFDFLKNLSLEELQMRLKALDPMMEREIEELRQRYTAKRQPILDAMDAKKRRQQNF
Sequence of DAPK1 (P53355 whole entry, canonical isoform): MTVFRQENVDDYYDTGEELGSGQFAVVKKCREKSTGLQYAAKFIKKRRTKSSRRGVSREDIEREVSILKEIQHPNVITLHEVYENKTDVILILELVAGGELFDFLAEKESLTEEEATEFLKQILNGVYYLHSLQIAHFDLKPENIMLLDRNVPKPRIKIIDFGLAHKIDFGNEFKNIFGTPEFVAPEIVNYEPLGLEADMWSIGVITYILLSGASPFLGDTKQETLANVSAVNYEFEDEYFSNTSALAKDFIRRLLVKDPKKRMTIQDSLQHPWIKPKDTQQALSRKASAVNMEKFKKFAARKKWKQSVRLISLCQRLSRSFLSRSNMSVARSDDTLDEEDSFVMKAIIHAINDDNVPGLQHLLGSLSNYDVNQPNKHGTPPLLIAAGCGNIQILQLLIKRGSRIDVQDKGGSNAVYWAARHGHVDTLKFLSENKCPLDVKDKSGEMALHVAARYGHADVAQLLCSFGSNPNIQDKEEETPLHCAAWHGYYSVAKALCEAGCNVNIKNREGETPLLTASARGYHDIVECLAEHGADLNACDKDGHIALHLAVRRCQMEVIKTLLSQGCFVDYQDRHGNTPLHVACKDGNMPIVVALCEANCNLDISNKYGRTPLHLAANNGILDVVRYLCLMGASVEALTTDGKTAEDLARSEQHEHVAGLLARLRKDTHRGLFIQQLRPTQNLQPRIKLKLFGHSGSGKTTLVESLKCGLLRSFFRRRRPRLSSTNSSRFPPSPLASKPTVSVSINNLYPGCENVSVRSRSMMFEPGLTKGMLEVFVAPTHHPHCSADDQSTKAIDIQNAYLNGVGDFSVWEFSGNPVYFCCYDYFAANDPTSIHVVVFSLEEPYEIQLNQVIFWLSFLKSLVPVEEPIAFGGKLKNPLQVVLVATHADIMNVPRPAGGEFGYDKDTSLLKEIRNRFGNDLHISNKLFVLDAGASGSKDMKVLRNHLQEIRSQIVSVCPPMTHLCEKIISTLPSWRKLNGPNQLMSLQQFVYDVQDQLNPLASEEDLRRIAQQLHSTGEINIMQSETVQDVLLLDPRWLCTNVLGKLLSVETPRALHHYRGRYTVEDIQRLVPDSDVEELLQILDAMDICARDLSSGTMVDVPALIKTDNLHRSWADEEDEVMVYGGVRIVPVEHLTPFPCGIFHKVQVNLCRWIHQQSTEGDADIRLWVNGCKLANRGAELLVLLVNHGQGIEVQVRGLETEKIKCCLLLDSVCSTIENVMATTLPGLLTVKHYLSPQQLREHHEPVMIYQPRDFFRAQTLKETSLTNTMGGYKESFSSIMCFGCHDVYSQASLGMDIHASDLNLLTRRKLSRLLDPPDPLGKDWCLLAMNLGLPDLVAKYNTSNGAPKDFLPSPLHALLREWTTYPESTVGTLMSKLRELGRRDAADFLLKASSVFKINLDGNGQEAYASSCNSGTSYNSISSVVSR
Sequence of CHEK2 (O96017 whole entry): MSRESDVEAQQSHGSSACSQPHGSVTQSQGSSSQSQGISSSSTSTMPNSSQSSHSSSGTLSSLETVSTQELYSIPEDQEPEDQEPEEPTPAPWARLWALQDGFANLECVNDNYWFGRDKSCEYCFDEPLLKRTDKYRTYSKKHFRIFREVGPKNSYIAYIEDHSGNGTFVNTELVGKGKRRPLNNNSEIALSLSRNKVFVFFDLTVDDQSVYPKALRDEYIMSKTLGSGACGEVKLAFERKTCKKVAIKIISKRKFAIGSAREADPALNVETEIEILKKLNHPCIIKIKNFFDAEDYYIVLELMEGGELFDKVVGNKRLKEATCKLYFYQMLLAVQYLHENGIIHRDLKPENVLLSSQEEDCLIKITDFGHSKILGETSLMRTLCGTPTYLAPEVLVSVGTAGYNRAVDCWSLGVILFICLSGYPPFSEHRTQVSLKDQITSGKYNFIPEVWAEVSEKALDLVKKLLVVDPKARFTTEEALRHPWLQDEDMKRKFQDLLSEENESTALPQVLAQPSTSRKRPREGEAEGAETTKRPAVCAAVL
T2 sequence (P09874 whole entry): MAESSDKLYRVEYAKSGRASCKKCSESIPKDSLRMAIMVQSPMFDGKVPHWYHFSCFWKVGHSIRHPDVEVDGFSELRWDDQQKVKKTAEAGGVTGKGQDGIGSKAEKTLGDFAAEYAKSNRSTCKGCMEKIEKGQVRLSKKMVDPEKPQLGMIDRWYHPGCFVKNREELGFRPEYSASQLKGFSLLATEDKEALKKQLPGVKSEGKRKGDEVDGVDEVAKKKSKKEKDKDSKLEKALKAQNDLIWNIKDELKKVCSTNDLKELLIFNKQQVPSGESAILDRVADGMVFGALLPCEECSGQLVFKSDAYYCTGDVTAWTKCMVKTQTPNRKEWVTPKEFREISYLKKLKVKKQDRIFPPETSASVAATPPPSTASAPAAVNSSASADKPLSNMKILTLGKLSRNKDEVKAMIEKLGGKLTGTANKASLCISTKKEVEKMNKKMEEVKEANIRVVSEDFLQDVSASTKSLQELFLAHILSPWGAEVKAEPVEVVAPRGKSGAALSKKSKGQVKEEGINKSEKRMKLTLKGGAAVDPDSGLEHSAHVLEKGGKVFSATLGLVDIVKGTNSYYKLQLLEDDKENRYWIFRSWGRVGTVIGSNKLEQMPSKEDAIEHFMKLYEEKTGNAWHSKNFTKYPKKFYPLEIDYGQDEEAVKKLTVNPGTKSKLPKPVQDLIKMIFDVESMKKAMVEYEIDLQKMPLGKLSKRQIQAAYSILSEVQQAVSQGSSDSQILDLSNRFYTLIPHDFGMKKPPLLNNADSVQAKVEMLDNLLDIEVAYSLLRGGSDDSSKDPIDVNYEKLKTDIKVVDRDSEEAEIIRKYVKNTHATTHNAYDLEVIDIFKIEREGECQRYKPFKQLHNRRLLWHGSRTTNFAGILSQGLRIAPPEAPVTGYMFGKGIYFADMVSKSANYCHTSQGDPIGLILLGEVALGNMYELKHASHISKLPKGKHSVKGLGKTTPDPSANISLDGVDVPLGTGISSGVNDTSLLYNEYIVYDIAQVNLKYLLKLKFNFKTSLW
Sequence of EPHB4 (P54760 16-987, species assumed): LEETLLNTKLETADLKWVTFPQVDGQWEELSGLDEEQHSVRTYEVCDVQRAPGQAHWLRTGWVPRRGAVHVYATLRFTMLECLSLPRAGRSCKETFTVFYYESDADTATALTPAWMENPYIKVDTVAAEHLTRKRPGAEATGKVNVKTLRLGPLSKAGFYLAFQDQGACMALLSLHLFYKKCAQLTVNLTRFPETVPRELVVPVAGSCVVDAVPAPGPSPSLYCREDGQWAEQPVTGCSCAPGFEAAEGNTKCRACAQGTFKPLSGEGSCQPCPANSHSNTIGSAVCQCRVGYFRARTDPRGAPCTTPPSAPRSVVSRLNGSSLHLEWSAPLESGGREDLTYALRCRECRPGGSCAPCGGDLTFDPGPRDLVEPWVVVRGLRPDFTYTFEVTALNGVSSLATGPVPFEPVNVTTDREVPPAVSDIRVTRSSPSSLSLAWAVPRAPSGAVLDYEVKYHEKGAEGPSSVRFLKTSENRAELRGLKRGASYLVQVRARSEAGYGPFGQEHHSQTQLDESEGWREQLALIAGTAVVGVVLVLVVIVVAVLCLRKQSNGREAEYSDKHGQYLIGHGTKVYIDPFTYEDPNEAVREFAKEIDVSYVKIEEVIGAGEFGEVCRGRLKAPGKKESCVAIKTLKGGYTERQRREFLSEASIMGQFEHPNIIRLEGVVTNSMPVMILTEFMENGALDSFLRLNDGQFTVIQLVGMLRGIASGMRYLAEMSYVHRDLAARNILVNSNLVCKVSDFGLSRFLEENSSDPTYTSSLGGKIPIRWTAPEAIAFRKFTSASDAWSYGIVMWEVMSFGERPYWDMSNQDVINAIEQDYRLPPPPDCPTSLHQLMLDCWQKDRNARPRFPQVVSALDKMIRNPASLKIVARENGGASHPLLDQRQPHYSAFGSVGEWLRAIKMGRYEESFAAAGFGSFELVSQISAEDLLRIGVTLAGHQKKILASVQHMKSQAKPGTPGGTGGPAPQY
Sequence of CLK3 (P49761 whole entry): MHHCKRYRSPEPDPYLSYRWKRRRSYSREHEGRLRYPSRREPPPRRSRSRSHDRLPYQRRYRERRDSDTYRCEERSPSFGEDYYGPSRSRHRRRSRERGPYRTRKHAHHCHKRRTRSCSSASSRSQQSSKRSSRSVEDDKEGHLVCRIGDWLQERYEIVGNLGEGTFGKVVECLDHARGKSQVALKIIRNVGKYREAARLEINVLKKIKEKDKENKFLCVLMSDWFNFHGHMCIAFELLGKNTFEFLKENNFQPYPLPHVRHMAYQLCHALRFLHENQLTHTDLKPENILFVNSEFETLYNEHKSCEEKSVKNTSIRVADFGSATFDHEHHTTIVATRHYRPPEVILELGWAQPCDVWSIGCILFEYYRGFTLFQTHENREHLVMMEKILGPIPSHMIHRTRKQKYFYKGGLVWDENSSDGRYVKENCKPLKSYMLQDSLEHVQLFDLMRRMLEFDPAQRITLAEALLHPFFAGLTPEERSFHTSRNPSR

IC50 [1]: > 10 µM
IC50 [2]: > 10 µM
IC50 [3]: > 10 µM
IC50 [4]: > 10 µM
bioavailability [5]: 66.5%
AUC ([5]; SD rats, p.o): 8020 ng·h/mL
Cmax ([5]; SD rats, p.o): 812 ng/mL
half-life ([5]; SD rats, p.o): 2.71 h
IC50 [6]: > 10 µM
Kd [7]: 0.0166 µM
Kd [8]: 0.00715 µM
IC50 [9]: > 10 µM
IC50 [10]: > 10 µM
IC50 [11]: > 10 µM
IC50 [12]: > 10 µM
IC50 [13]: > 10 µM
IC50 [14]: > 10 µM
IC50 [15]: > 10 µM
IC50 [16]: > 10 µM
IC50 [17]: > 10 µM
IC50 [18]: > 10 µM
Kd [19]: > 10 µM
Kd [20]: > 10 µM
Kd [21]: > 10 µM
Kd [22]: > 10 µM
Kd [23]: > 10 µM
Kd [24]: > 10 µM
Kd [25]: > 10 µM
Kd [26]: > 10 µM
Kd [27]: > 10 µM
Kd [28]: > 10 µM
Kd [29]: > 10 µM
Kd [30]: > 10 µM
IC50 [31]: > 10 µM
SMILES: NC(N)=NCCC[C@H](NCN1CCN(C(=O)c2cc(Cc3n[nH]c(=O)c4ccccc34)ccc2F)CC1)C(=O)O [PPNR-4]

— article PMC11637875, “Discovery of novel PARP1/NRP1 dual-targeting inhibitors with strong antitumor potency” (Frontiers in Pharmacology, 2024)
